Six molecules from patent US6495572B1, “Synergistic mixtures of an amino acid” (Agrogene Ltd., priority 1997, dated 2002) can be followed below.

What all share (format): in vivo, Erysiphe graminis
The subject of one test is powdery mildew in wheat. Kind of test: Control of powdery mildew on potted wheat plants in growth chamber. Details: ED90: unit not given beside the values. The settings on record: for Observed Control (%): wheat. As to the method: (§1) β Amionbutyric acid and component (b) fungicides were tested against fungi on potted plants, as follows:
(§2) 12-15 seeds were sown in a pot of 0.5 liter in a mixture of ground, sand, and Perlite in a ratio of 1;1;1. After two weeks in a growth chamber the plants were used for experimentation only when the first true leave appeared. Spraying was done until runoff; waiting in the growth chamber for 24 hours. Inoculations of the fungus was done via dusting the plants with plants already infected. The then dusted plants were incubated 7 to 10 days at 20° in a growth chamber with an exposure of 12 hours to light at an intensity of 7000-800 lucs. The results of the fungul growth was done via visual estimation (0 to 4) of the infected leaves. The existence of synergism between the active components was calculated according to the Abbott Equation. [formula]
(§3) a=% control b the β-arninobutyric acid.
(§4) b=% control by the second component.
(§5) and where the synergism factor. SF is calculated thusly [formula]

Test [1] relates to powdery mildew in cucumber. Kind of test: Control of powdery mildew on potted cucumber plants in growth chamber. The settings on record: for Observed Control (%): cucumber. How it is done:
as §1, §2, §3, §4, §5

The test system of another test is powdery mildew in barley. Kind of test: Control of powdery mildew on potted barley plants in growth chamber. As to the method:
as §1, §2, §3, §4, §5

As for `Fc1ccc([C@]2(Cn3cncn3)O[C@H]2c2ccccc2Cl)cc1` (racemic) [Epoxiconazole, epoxiconazole], the ED90 in the test on powdery mildew in wheat (wheat (Table 6)) is on record as 0.5; in test [1] (cucumber (Table 9)), 5.5. Also, the “Observed Control (%)” value is on record as 25% with powdery mildew in wheat (Epoxiconazole 0.15 ppm alone); 98% in the test on powdery mildew in wheat (Epoxiconazole 0.6 ppm alone); 100% in the test with powdery mildew in wheat (Epoxiconazole 2.5 ppm alone); 100% in the test on powdery mildew in wheat (Epoxiconazole 10 ppm alone); 60% in test [1] (Epoxiconazole 2.5 ppm alone); 96% in test [1] (Epoxiconazole 5 ppm alone). The “Observed Control (%)” value is 96% in test [1] (Epoxiconazole 10 ppm alone) and 100% in test [1] (Epoxiconazole 20 ppm alone).
Turning to `CCCN(CCOc1c(Cl)cc(Cl)cc1Cl)C(=O)n1ccnc1` [Prochloraz, prochloraz], the “Observed Control (%)” value was 43% in the test with powdery mildew in barley (Prochloraz 1.25 ppm alone); 67% in the test on powdery mildew in barley (Prochloraz 5 ppm alone); 74% in the test on powdery mildew in barley (Prochloraz 10 ppm alone); 33% with powdery mildew in wheat (Prochloraz 1.25 ppm alone); 42% in the test with powdery mildew in wheat (Prochloraz 5 ppm alone); 52% with powdery mildew in wheat (Prochloraz 10 ppm alone).
In the case of `CCCC1COC(Cn2cncn2)(c2ccc(Cl)cc2Cl)O1` (stereo not shown) [Propiconazole, propiconazole], the “Observed Control (%)” value in the test with powdery mildew in barley (Propiconazole 0.5 ppm alone) is listed as 75%; in the test with powdery mildew in barley (Propiconazole 1 ppm alone), 88%; with powdery mildew in barley (Propiconazole 2 ppm alone), 94%; in the test on powdery mildew in wheat (Propiconazole 0.5 ppm alone) it was 25%; with powdery mildew in wheat (Propiconazole 1 ppm alone), 50%; in the test with powdery mildew in wheat (Propiconazole 2 ppm alone), 83%.
In the case of `CC(C)(C)C(O)(CCc1ccc(Cl)cc1)Cn1cncn1` (stereo not shown) [Tebuconazole, tebuconazole], the ED90 in the test on powdery mildew in wheat (wheat (Table 5)) is listed as 1.0; in test [1] (cucumber (Table 8)) it was 14. The “Observed Control (%)” value in the test on powdery mildew in wheat (Tebuconazole 0.15 ppm alone) turned out to be 25%; in the test with powdery mildew in wheat (Tebuconazole 0.6 ppm alone) it was 63%; with powdery mildew in wheat (Tebuconazole 2.5 ppm alone), 100%; in the test on powdery mildew in wheat (Tebuconazole 10 ppm alone), 100%; in test [1] (Tebuconazole 2.5 ppm alone) it was 0%; in test [1] (Tebuconazole 5 ppm alone), 80%. For the same molecule, the entries for the “Observed Control (%)” value in test [1] (Tebuconazole 10 ppm alone) and in test [1] (Tebuconazole 20 ppm alone) were 80% and 92%, respectively.
`CC(C)(C)C(O)C(Oc1ccc(Cl)cc1)n1cncn1` (stereo not shown) [Triadimenol, triadimenol]: the ED90 amounted to 1.0 with powdery mildew in wheat (wheat (Table 7)) and 9.4 in test [1] (cucumber (Table 10)). The “Observed Control (%)” value was found to be 25% with powdery mildew in wheat (Triadimenol 0.15 ppm alone); 98% with powdery mildew in wheat (Triadimenol 0.6 ppm alone); 100% with powdery mildew in wheat (Triadimenol 2.5 ppm alone); 100% with powdery mildew in wheat (Triadimenol 10 ppm alone); 60% in test [1] (Triadimenol 2.5 ppm alone); 88% in test [1] (Triadimenol 5 ppm alone). Further, the “Observed Control (%)” value in test [1] (Triadimenol 10 ppm alone) and in test [1] (Triadimenol 20 ppm alone) was 96% in each case.
For the molecule `CC(N)CC(=O)O` (stereo not drawn) [β-Aminobutyric acid, β-aminobutyric acid], the “Observed Control (%)” value with powdery mildew in barley (BABA 16 ppm alone (Table 3)) is 0%; in the test on powdery mildew in barley (BABA 62 ppm alone (Table 3)) it was 50%; in the test on powdery mildew in barley (BABA 125 ppm alone (Table 1)), 14%; in the test on powdery mildew in barley (BABA 250 ppm alone (Table 1)) it was 14%; in the test with powdery mildew in barley (BABA 250 ppm alone (Table 3)) it was 38%; with powdery mildew in barley (BABA 500 ppm alone (Table 1)) it was 14%. Moreover, the “Observed Control (%)” value is recorded as 14% with powdery mildew in barley (BABA 1000 ppm alone (Table 1)); 70% in the test on powdery mildew in barley (BABA 1000 ppm alone (Table 3)); 0% with powdery mildew in wheat (BABA 16 ppm alone (Table 4)); 8% with powdery mildew in wheat (BABA 62 ppm alone (Table 4)); 8% in the test with powdery mildew in wheat (BABA 125 ppm alone (Table 2)); 13% in the test with powdery mildew in wheat (BABA 125 ppm alone (Table 5)). For the same molecule, the “Observed Control (%)” value is listed as 13% with powdery mildew in wheat (BABA 125 ppm alone (Table 6)); 13% with powdery mildew in wheat (BABA 125 ppm alone (Table 7)); 8% with powdery mildew in wheat (BABA 250 ppm alone (Table 2)); 17% with powdery mildew in wheat (BABA 250 ppm alone (Table 4)); 25% in the test with powdery mildew in wheat (BABA 250 ppm alone (Table 5)); 25% in the test on powdery mildew in wheat (BABA 250 ppm alone (Table 6)). The “Observed Control (%)” value in the test with powdery mildew in wheat (BABA 250 ppm alone (Table 7)) was found to be 25%; in the test on powdery mildew in wheat (BABA 500 ppm alone (Table 2)) it was 8%; in the test with powdery mildew in wheat (BABA 500 ppm alone (Table 5)), 63%; in the test with powdery mildew in wheat (BABA 500 ppm alone (Table 6)), 63%; in the test on powdery mildew in wheat (BABA 500 ppm alone (Table 7)), 63%; in the test on powdery mildew in wheat (BABA 1000 ppm alone (Table 2)), 17%. Also, the “Observed Control (%)” value in the test with powdery mildew in wheat (BABA 1000 ppm alone (Table 4)) worked out at 33%; in the test with powdery mildew in wheat (BABA 1000 ppm alone (Table 5)), 100%; with powdery mildew in wheat (BABA 1000 ppm alone (Table 6)), 100%; in the test on powdery mildew in wheat (BABA 1000 ppm alone (Table 7)) it was 100%. In addition, the ED90 in the test with powdery mildew in wheat (wheat (Table 5)), in the test on powdery mildew in wheat (wheat (Table 6)) and in the test with powdery mildew in wheat (wheat (Table 7)) was 684 throughout.
